Molecules are shown by their SMILES.

This is an account of results in patent EP0402733A2, “Agent for the treatment of central nervous system illnesses and for the enhancement of cerebral blood flow” (Dr. Karl Thomae GmbH, priority 1989, dated 1990).

Test [1] relates to inhibitorischen Autorezeptoren in hippocampalem Gewebe. Put plainly: Transmitter release study: in vitro acetylcholine release from electrically stimulated hippocampal slices, antagonism of carbachol. The test is classed as biochemical, Ratten. The source says:
Die Versuche zur in-vitro Freisetzung von Acetylcholin aus hippocampalen Gewebeschnitten wurden in Analogie zu Anordnungen durchgeführt, die für die Freisetzung von 5-HT aus Hypothalamus- bzw. Hippocampus-Gewebe beschrieben sind (vgl. M.H. Richards, Naunyn Schmiedeberg's Arch. Pharmacol. 329, 359-366 (1985) und T.J. Feuerstein, G. Hertting und R. Jackisch, Europ. J. Pharmacol. 107, 233-242 (1985)).
Männliche Ratten (Stamm Chbb:Thom, Gewicht 200 bis 300 g) wurden ohne Vorbehandlung dekapitiert; das gesamte Gehirn wurde sofort entnommen und unter Eiskühlung zerlegt. Gemäß den oben beschriebenen Verfahren wurde der Hippocampus in 0,4 mm dicke Schnitte mit Hilfe eines McIlwain-Gewebehackers geschnitten. Die Gewebeschnitte wurden 30 Minuten lang bei 37°C vorincubiert in Gegenwart von 0,05 mM ³H-Cholin in einem Krebs-Henseleit Puffer der folgenden Zusammensetzung: 120 mM NaCl, 4,8 mM KCl, 1,3 mM CaCl₂, 1,2 mM KH₂PO₄, 1,2 mM MgSO₄ und 25 mM NaHCO₃. Der Puffer enthielt zusätzlich 2 g Glucose und 100 mg EDTA. Der Puffer wurde mit Natronlauge auf einen pH-Wert von 7,4 bei 20°C eingestellt. Alle Lösungen wurden kontinuierlich mit 95 % O₂ und 5 % CO₂ gesättigt. Die Gewebeschnitte wurden daraufhin gespült, jeder Gewebeschnitt wurde jeweils willkürlich auf 12 Superfusionseinheiten verteilt und mit dem Puffer bei 37°C bei einer Fließgeschwindigkeit von 1 ml/min überspült. […]

The target of test [2] is T1, muscarinischen Rezeptoren des Cortex (Rezeptoren vom M₁-Subtyp) (Rattus norvegicus, UniProt P08482).
T1 sequence (P08482 1-460): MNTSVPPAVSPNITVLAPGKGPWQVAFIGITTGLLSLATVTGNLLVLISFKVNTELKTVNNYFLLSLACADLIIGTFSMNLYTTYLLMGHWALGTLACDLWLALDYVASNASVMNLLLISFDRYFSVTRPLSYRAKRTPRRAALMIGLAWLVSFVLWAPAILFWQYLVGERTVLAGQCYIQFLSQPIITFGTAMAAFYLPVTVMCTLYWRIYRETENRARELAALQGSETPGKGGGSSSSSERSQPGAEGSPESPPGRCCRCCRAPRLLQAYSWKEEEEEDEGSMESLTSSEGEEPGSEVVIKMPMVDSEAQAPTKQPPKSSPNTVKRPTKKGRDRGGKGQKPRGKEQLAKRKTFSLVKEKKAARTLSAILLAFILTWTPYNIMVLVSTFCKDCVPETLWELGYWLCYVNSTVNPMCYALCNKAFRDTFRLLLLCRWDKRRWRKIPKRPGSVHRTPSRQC
Put plainly: 3H-NMS binding study at muscarinic receptors of the cortex (cerebral cortex homogenate). Set-up: species or system Sprague-Dawley-Ratten. The settings on record: 0,3 nM ³H-NMS, Großhirnrinde homogenate 1:3000, 30°C, 45 min. The source says: Als Organspender dienten männliche Sprague-Dawley-Ratten mit 180-220 g Körpergewicht. Nach Entnahme der Großhirnrinde wurden alle weiteren Schritte in eiskaltem Hepes-HCl-Puffer (pH 7,4; 100 m molar NaCl, 10 m molar MgCl₂) vorgenommen. Das Gesamtherz wurde mit einer Schere zerkleinert. Alle Organe wurden abschließend in einem Potter homogenisiert.
Für den Bindungstest wurden die Organhomogenate in folgender Weise verdünnt:
Die Inkubation der Organhomogenate erfolgte bei einer bestimmten Konzentration des Radioliganden und einer Konzentrationsreihe der nichtradioaktiven Testsubstanzen im Eppendorf-Zentrifugenröhrchen bei 30°C. Die Inkubationsdauer betrug 45 Minuten. Als Radioligand wurde 0,3 n molar ³H-N-Methylscopolamin (³H-NMS) verwendet. Die Inkubation wurde durch Zugabe von eiskaltem Puffer mit nachfolgender Vakuumfiltration beendet. Die Filter wurden mit kaltem Puffer gespült und ihre Radioaktivität bestimmt. Sie repräsentiert die Summe von spezifischer und unspezifischer Bindung von ³H-NMS. Der Anteil der unspezifischen Bindung wurde defi niert als jene Radioaktivität, die in Anwesenheit von 1 µ molar Chinuclidinylbenzilat gebunden wurde. Es wurden immer Vierfachbestimmungen vorgenommen. Die IC₅₀-Werte der nichtmarkierten Testsubstanzen wurden graphisch bestimmt. […]

For test [3], the target named is muscarinische Rezeptoren der Pia mater des Rindes. Put plainly: Inhibition of 3H-NMS binding to muscarinic receptors of bovine pia mater homogenate. Set-up: species or system Rind. The following applies: 0,3 nM [³H]NMS, 45 min, room temperature. How it is done:
Die Pia-Gefäße von Rinder-Hirnen, erhalten vom lokalen Schlachthof, wurden präpariert und von Blutresten gereinigt. Je 0,5 g-Portionen wurden bei 8°C bis zur weiteren Verwendung gelagert. Zur Homogenatgewinnung wurden 0,5 g Pia-Geäße mittels eines Gewebehackers zerkleinert, in 60 ml HEPES-Puffer (20 mM HEPES, 10 mM MgCl₂, 100 mM NaCl, pH 7,50) aufgenommen, mit einem Ultra-Turrax homogenisiert und 20 min. bei 0°C mit 48000 x g zentrifugiert. Das Pellet wurde erneut mit einem Ultra-Turrax homogenisiert, durch Mull filtriert und mit HEPES-Puffer auf eine Verdünnung von 1:140 bezogen auf das Feuchtgewicht der Gefäße verdünnt.
0,3 nM [³H]NMS und steigende Konzentrationen des Antagonisten wurden mit dem Homogenat in einem Gesamtvolumen von 0,52 ml für 45 min. bei Raumtemperatur inkubiert. Der Inkubationsansatz wurde mit Hilfe eines Scatron Cell Harvesters über Glasfaser-Filtermatten filtriert und zweimal mit eiskalter physiologischer Kochsalzlösung gewaschen. Die Filter-gebundene Radioaktivität wurde in einem Flüssigkeitsszintillationszähler bestimmt. Als unspezifische Bindung wurde die gebundene Radioaktivität in Gegenwart von 10⁻⁶M (-)-Chinuclidinyl-benzilat definiert.

With `CCN(CCCC(=O)N1CCC(C(=O)N(C)C)CC1)C(C)Cc1ccc(OC)cc1` (racemic) [Substanz I, (±)-1-[4-[Ethyl[2-(4-methoxyphenyl)-1-methylethyl]amino]-1-oxobutyl]-N,N-dimethyl-4-piperidincarboxamid], the “ACh-Release am Hippocampus-Gewebe (pA₂)” value in test [1] (rat hippocampal slices, electrical stimulation, agonist Carbachol) is 8,7. Further, in test [1] (selectivity ratio: cortex (M₁) binding versus ACh release in hippocampus), the “Verhältnis von IC₅₀ (Cortex) zu pA₂(ACh-Release)” value was 25. Also, the “Rezeptor-Bingungstests Cortex -log IC₅₀ (M)” value in test [2] is 7,3. Moreover, the “-log IC₅₀ (M)” value in test [3] is given as 8,2.
